According to patent EP4563146A1 (IRBM S.P.A., priority 2023, dated 2025):
Like-named read-outs stand apart in the source and are kept apart here.

Columns and labels:
[1] = target: T1, West Nile Virus (WNV) NS2B-NS3 protease (West Nile virus, UniProt Q9Q6P4); test: WNV protease inhibition assay; assay type: biochemical; conditions: Table 4; letter codes for IC50
T1 construct: NS2B1423-1470); purchased R&D 2907-SE-020
Text: WNV protease inhibition assay

ZIKV replicon = test: ZIKV replication inhibition assay (NanoLuc replicon in Vero cells); conditions: 72 h
[2] = Zika virus, Vero, read-out: ZIKA Cell_Nanoluc
[3] = read-out: ZIKA Cell_Nanoluc, Vero cells with stable ZIKV replicon, Nano-Glo readout
[4] = Zika virus, Vero, read-out: ZIKA Cell_Nanoluc, Vero cells with stable ZIKV replicon, 72 h, Nano-Glo readout

T1 sequence (Q9Q6P4 1423-1470): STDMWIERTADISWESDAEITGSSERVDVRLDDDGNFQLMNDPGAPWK
T1 sequence (Q9Q6P4 1506-1689): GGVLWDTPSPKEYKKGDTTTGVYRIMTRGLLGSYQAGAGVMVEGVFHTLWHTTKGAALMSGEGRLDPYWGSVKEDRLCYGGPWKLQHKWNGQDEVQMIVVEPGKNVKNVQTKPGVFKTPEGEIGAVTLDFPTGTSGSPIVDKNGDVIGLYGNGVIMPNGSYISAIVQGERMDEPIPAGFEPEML

| SMILES | IC50 [1] [nM] | EC50 (ZIKV replicon; [2]) [nM] | EC50 (ZIKV replicon; [3]) [nM] | EC50 (ZIKV replicon; [4]) [nM] |
| --- | --- | --- | --- | --- |
| CN(C)C[C@H]1CC[C@H]([n+]2cc([N-]C(=O)Nc3cc(N4CCC(c5ccccc5)C4=O)cc(C(F)(F)F)c3)on2)CC1 (stereo partly drawn) [Example 148, (3-((1R,4R)-4-((Dimethylamino)methyl)-cyclohexyl)-1,2,3-oxadiazol-3-ium-5-yl)((3-(2-oxo-3-phenylpyrrolidin-1-yl)-5-(trifluoromethyl)-phenyl)carbamoyl)amide] | 100 to 1000 | 1000 to 20000 | – | – |
| CN(C)C[C@H]1CC[C@H]([n+]2cc([N-]C(=O)Nc3cc(NC(=O)CS(=O)(=O)c4ccccc4)cc(C(F)(F)F)c3)on2)CC1 [Example 151, (3-((1R,4R)-4-((Dimethylamino)methyl)-cyclohexyl)-1,2,3-oxadiazol-3-ium-5-yl)((3-(2-(phenylsulfonyl)acetamido)-5-(trifluoromethyl)phenyl)carbamoyl)amide] | 100 to 1000 | – | 1000 to 20000 | – |
| COc1ccccc1CC(=O)Nc1cc(NC(=O)[N-]c2c[n+](C3CCC(CN(C)C)CC3)no2)cc(C(F)(F)F)c1 [Example 153, (3-((1R,4R)-4-((Dimethylamino)methyl)-cyclohexyl)-1,2,3-oxadiazol-3-ium-5-yl)((3-(2-(2-methoxyphenyl)acetamido)-5-(trifluoromethyl)-phenyl)carbamoyl)amide] | 100 to 1000 | – | 1000 to 20000 | – |
| CN(C)C[C@H]1CC[C@H]([n+]2cc([N-]C(=O)Nc3cc(NC(=O)Cc4ccc(C(=O)O)cc4)cc(C(F)(F)F)c3)on2)CC1 [Example 156, ((3-(2-(4-Carboxyphenyl)acetamido)-5-(trifluoromethyl)phenyl)carbamoyl)(3-((1R,4R)-4-((dimethylamino)methyl)cyclohexyl)-1,2,3-oxadiazol-3-ium-5-yl)amide] | 1000 to 20000 | – | 1000 to 20000 | – |
| CN(C)C[C@H]1CC[C@H]([n+]2cc([N-]C(=O)Nc3cc(NC(=O)CCc4cn(C)c5ccccc45)cc(C(F)(F)F)c3)on2)CC1 [Example 157, (3-((1R,4R)-4-((Dimethylamino)methyl)-cyclohexyl)-1,2,3-oxadiazol-3-ium-5-yl)((3-(3-(1-methyl-1H-indol-3-yl)propanamido)-5-(trifluoromethyl)phenyl)carbamoyl)amide] | < 100 | – | 1000 to 20000 | – |
| CN(C)CC1CCC([n+]2cc([N-]C(=O)Nc3cc(NC(=O)CCc4cnccn4)cc(C(F)(F)F)c3)on2)CC1 [Example 158, (3-((1R,4R)-4-((Dimethylamino)methyl)-cyclohexyl)-1,2,3-oxadiazol-3-ium-5-yl)((3-(3-(pyrazin-2-yl)propanamido)-5-(trifluoromethyl-)phenyl)carbamoyl)amide] | 1000 to 20000 | – | > 20000 | – |
| CN(C)CC1CCC([n+]2cc([N-]C(=O)Nc3cc(NC(=O)Cc4ccccc4C(=O)O)cc(C(F)(F)F)c3)on2)CC1 [Example 159, ((3-(2-(2-Carboxyphenyl)acetamido)-5-(trifluoromethyl)phenyl)carbamoyl)(3-((1R,4R)-4-((dimethylamino)methyl)cyclohexyl)-1,2,3-oxadiazol-3-ium-5-yl)amide] | < 100 | – | 1000 to 20000 | – |
| CN(C)C[C@H]1CC[C@H]([n+]2cc([N-]C(=O)Nc3cc(NC(=O)C(F)(F)CN4CCCC4)cc(C(F)(F)F)c3)on2)CC1 [Example 160, ((3-(2,2-Difluoro-3-(pyrrolidin-1-yl)propanamido)-5-(trifluoromethyl)phenyl)-carbamoyl)(3-((1R,4R)-4-((dimethylamino)-methyl)cyclohexyl)-1,2,3-oxadiazol-3-ium-5-yl)amide] | 1000 to 20000 | > 20000 | – | – |
| CN(C)C[C@H]1CC[C@H]([n+]2cc([N-]C(=O)Nc3cc(NC(=O)Cc4cn(C)c5ccccc45)cc(C(F)(F)F)c3)on2)CC1 [Example 161, (3-((1R,4R)-4-((dimethylamino)methyl)-cyclohexyl)-1,2,3-oxadiazol-3-ium-5-yl)((3-(2-(1-methyl-1H-indol-3-yl)acetamido)-5-(trifluoromethyl)phenyl)carbamoyl)amide] | 100 to 1000 | 1000 to 20000 | – | – |
| CN(C)C[C@H]1CC[C@H]([n+]2cc([N-]C(=O)Nc3cc(NC(=O)Cc4cccc(CC(N)=O)c4)cc(C(F)(F)F)c3)on2)CC1 [Example 162, ((3-(2-(3-(2-Amino-2-oxoethyl)phenyl)-acetamido)-5-(trifluoromethyl)phenyl)-carbamoyl)(3-((1R,4R)-4-((dimethylamino)-methyl)cyclohexyl)-1,2,3-oxadiazol-3-ium-5-yl)amide] | 100 to 1000 | 1000 to 20000 | – | – |
| CN(C)C[C@H]1CC[C@H]([n+]2cc([N-]C(=O)Nc3cc(NC(=O)Cc4cccc(CN)c4)cc(C(F)(F)F)c3)on2)CC1 [Example 163, ((3-(2-(3-(Aminomethyl)phenyl)acetamido)-5-(trifluoromethyl)phenyl)carbamoyl)(3-((1R,4R)-4-((dimethylamino)methyl)cyclohexyl)-1,2,3-oxadiazol-3-ium-5-yl)amide] | 100 to 1000 | 1000 to 20000 | – | – |
| CC(C(=O)Nc1cc(NC(=O)[N-]c2c[n+]([C@H]3CC[C@H](CN(C)C)CC3)no2)cc(C(F)(F)F)c1)c1ccccc1 (stereo partly drawn) [Example 164, (3-((1R,4R)-4-((Dimethylamino)methyl)-cyclohexyl)-1,2,3-oxadiazol-3-ium-5-yl)((3-(2-phenylpropanamido)-5-(trifluoromethyl)phenyl)-carbamoyl)amide] | < 100 | 100 to 1000 | – | – |
| CCC(C(=O)Nc1cc(NC(=O)[N-]c2c[n+]([C@H]3CC[C@H](CN(C)C)CC3)no2)cc(C(F)(F)F)c1)c1ccccc1 (stereo partly drawn) [Example 165, (3-((1R,4R)-4-((Dimethylamino)methyl)-cyclohexyl)-1,2,3-oxadiazol-3-ium-5-yl)((3-(2-phenylbutanamido)-5-(trifluoromethyl)phenyl)-carbamoyl)amide] | 100 to 1000 | 100 to 1000 | – | – |
| CN(C)C[C@H]1CC[C@H]([n+]2cc([N-]C(=O)Nc3cc(NC(=O)Cc4ccccc4C(F)(F)F)cc(C(F)(F)F)c3)on2)CC1 [Example 166, (3-((1R,4R)-4-((Dimethylamino)methyl)-cyclohexyl)-1,2,3-oxadiazol-3-ium-5-yl)((3-(trifluoromethyl)-5-(2-(2-(trifluoromethyl)-phenyl)acetamido)phenyl)carbamoyl)amide] | 100 to 1000 | 1000 to 20000 | – | – |
| CC(C(=O)N(C)c1cc(NC(=O)[N-]c2c[n+]([C@H]3CC[C@H](CN(C)C)CC3)no2)cc(C(F)(F)F)c1)c1ccccc1 (stereo partly drawn) [Example 167, (3-((1R,4R)-4-((Dimethylamino)methyl)-cyclohexyl)-1,2,3-oxadiazol-3-ium-5-yl)((3-(N-methyl-2-phenylpropanamido)-5-(trifluoromethyl)phenyl)carbamoyl)amide] | 100 to 1000 | 1000 to 20000 | – | – |
| CN(C)C[C@H]1CC[C@H]([n+]2cc([N-]C(=O)Nc3cc(NC(=O)Cc4ccccc4Cl)cc(C(F)(F)F)c3)on2)CC1 [Example 168, ((3-(2-(2-Chlorophenyl)acetamido)-5-(trifluoromethyl)phenyl)carbamoyl)(3-((1R,4R)-4-((dimethylamino)methyl)cyclohexyl)-1,2,3-oxadiazol-3-ium-5-yl)amide] | < 100 | 100 to 1000 | – | – |
| CN(C)C[C@H]1CC[C@H]([n+]2cc([N-]C(=O)Nc3cc(NC(=O)Cc4cccc(F)c4F)cc(C(F)(F)F)c3)on2)CC1 [Example 169, ((3-(2-(2,3-Difluorophenyl)acetamido)-5-(trifluoromethyl)phenyl)carbamoyl)(3-((1R,4R)-4-((dimethylamino)methyl)cyclohexyl)-1,2,3-oxadiazol-3-ium-5-yl)amide] | < 100 | 100 to 1000 | – | – |
| C[C@H](C(=O)Nc1cc(NC(=O)[N-]c2c[n+]([C@H]3CC[C@H](CN(C)C)CC3)no2)cc(C(F)(F)F)c1)c1ccccc1 [Example 170, (3-((1R,4S)-4-((Dimethylamino)methyl)-cyclohexyl)-1,2,3-oxadiazol-3-ium-5-yl)((3-((S)-2-phenylpropanamido)-5-(trifluoromethyl)-phenyl)carbamoyl)amide] | < 100 | 100 to 1000 | – | – |
| Cc1ccccc1CC(=O)Nc1cc(NC(=O)[N-]c2c[n+]([C@H]3CC[C@H](CN(C)C)CC3)no2)cc(C(F)(F)F)c1 [Example 171, (3-((1R,4R)-4-((Dimethylamino)methyl)-cyclohexyl)-1,2,3-oxadiazol-3-ium-5-yl)((3-(2-(o-tolyl)acetamido)-5-(trifluoromethyl)phenyl)-carbamoyl)amide] | < 100 | 100 to 1000 | – | – |
| CN(C)C[C@H]1CC[C@H]([n+]2cc([N-]C(=O)Nc3cc(N(C)C(=O)Cc4ccccc4)cc(C(F)(F)F)c3)on2)CC1 [Example 172, (3-((1R,4R)-4-((Dimethylamino)methyl)-cyclohexyl)-1,2,3-oxadiazol-3-ium-5-yl)((3-(N-methyl-2-phenylacetamido)-5-(trifluoromethyl)-phenyl)carbamoyl)amide] | 100 to 1000 | 1000 to 20000 | – | – |
| CN(C)[C@@H]1CCC[C@@H]([n+]2cc([N-]C(=O)Nc3cc(NC(=O)Cc4ccccc4)cc(C(F)(F)F)c3)on2)C1 [Example 173, (3-((1R,3R)-3-(Dimethylamino)cyclohexyl)-1,2,3-oxadiazol-3-ium-5-yl)((3-(2-phenylacetamido)-5-(trifluoromethyl)phenyl)-carbamoyl)amide] | < 100 | – | – | 100 to 1000 |
| CN(C)[C@H]1CCC[C@@H]([n+]2cc([N-]C(=O)Nc3cc(NC(=O)Cc4ccccc4)cc(C(F)(F)F)c3)on2)C1 [Example 174, (3-((1R,3S)-3-(Dimethylamino)cyclohexyl)-1,2,3-oxadiazol-3-ium-5-yl)((3-(2-phenyl-acetamido)-5-(trifluoromethyl)phenyl)-carbamoyl)amide] | 100 to 1000 | – | – | 1000 to 20000 |
| C[C@@H](C(=O)Nc1cc(NC(=O)[N-]c2c[n+]([C@H]3CC[C@H](CN(C)C)CC3)no2)cc(C(F)(F)F)c1)c1ccccc1 [Example 175, (3-((1R,4R)-4-((Dimethylamino)methyl)-cyclohexyl)-1,2,3-oxadiazol-3-ium-5-yl)((3-((R)-2-phenylpropanamido)-5-(trifluoromethyl)-phenyl)carbamoyl)amide] | < 100 | 1000 to 20000 | – | – |
